# Patent US9428519B2, “Acylated derivative of homoharringtonine, preparation method therefor, and application thereof” (HANGZHOU BENSHENG PHARMACEUTICAL CO., LTD., priority 2011, dated 2016)
# Columns and labels:
# [1] = system: H9 (acute lymphoblastic leukemia, ALL); experiment: MTT growth inhibition of leukemia cells, 72 h; type: cell-based, human; settings: MTT
# Excerpt: (§1) Leukemia cell lines: leukemia cell lines: K562/adr (drug-resistant, chronic myeloid leukemia, CML), NB4 (acute promyelocytic leukemia, AML), Kasumi-1 (acute myeloid leukemia M2 type, AML-M2), Jurkat (acute lymphoblastic leukemia, ALL), all of which are donated by Cancer Research Institute of Zhejiang University, China; and H9 (acute lymphoblastic leukemia, ALL), which is purchased from China Center for Type Culture Collection (CCTCC).
# (§2) Reagents: The standard sample of homoharringtonine (HHT) is purchased from Taihua Natural Plant Pharmaceutical Co., Ltd., Shaanxi, China, the homoharringtonine derivatives of the present invention.
# (§3) Obtaining 6000 well-growing leukemia cells and inoculating them into wells of a 96-well cell culture plate. The culture medium is the 1640 cell culture medium containing 10% fetal bovine serum. After adding the homoharringtonine derivatives of different concentrations and mixing uniformly, placing the plate in a carbon dioxide cell incubator (5% CO2) at 37° C. and incubated for 72 hours. Then the viable cell concentration is determined by the MTT method. In this experiment, the cell viability in control group (not treated with any compound) is set as 100%. On such basis, the cell viability (%) after treatment and the 50% inhibiting concentration of the compound for the leukemia cell growth at 72 hours (IC50 value of 72 hours) are calculated.
# [2] = system: Jurkat (acute lymphoblastic leukemia, ALL); experiment: MTT growth inhibition of leukemia cells, 72 h; type: cell-based, human
# Excerpt: as §1, §2, §3
# [3] = system: K562/adr (drug-resistant, chronic myeloid leukemia, CML); experiment: MTT growth inhibition of leukemia cells, 72 h; type: cell-based, human; settings: MTT
# Excerpt: as §1, §2, §3
# [4] = system: Kasumi-1 (acute myeloid leukemia M2 type, AML-M2); experiment: MTT growth inhibition of leukemia cells, 72 h; type: cell-based, human
# Excerpt: as §1, §2, §3
# [5] = system: NB4 (acute promyelocytic leukemia, AML); experiment: MTT growth inhibition of leukemia cells, 72 h; type: cell-based, human; settings: MTT
# Excerpt: as §1, §2, §3
# [6] = system: RPMI8226 (multiple myeloma); experiment: MTT growth inhibition of multiple myeloma cells, 72 h; type: cell-based, human
# Description: Multiple myeloma and lymphoma cell lines: RPMI8226 (multiple myeloma), purchased from Fuxiang Bio-tech Co. Ltd., Shanghai, China.
# as §3
# A549 (human lung cancer) = experiment: MTT growth inhibition of human solid tumor cells, 72 h; type: cell-based
# Description: (§4) Human solid tumor cell lines: Hep-2 (laryngeal carcinoma), A549 (human lung cancer), CaES-17 (esophageal cancer cell), PC-3 (prostate cancer), CNE (nasopharyngeal carcinoma cell), and SK-OV-3 (ovarian cancer cell), all of which are purchased from China Center For Type Culture Collection; RKO (human colon adenocarcinoma cell), MGC 803 (human gastric cancer cell), MG63 (osteosarcoma) and U87 MG (malignant glioma cell), all of which are purchased from Fuxiang Bio-tech Co. Ltd., Shanghai, China; PANC-1 (pancreatic cancer), Huh7 (human liver cancer cell), Becap37 (human breast cancer cell), and Hela (human cervical cancer cell), all of which are donated by Cancer Research Institute of Zhejiang University, China.
# (§5) Obtaining 4000 well-growing human solid tumor cells and inoculating them into wells of a 96-well cell culture plate. The culture medium is DMEM High Glucose cell culture medium containing 10% fetal bovine serum. The plate is placed in a carbon dioxide cell incubator (5% CO2) at 37° C. and incubated for 24 hours. After adding the homoharringtonine derivatives of different concentration and mixing uniformly, the plate is placed in a carbon dioxide cell incubator (5% CO2) at 37° C. and incubated for 72 hours. Then the viable cell concentration is determined by the MTT method and the cell viability (%) after drug treatment is calculated. In this experiment, the cell viability of control group (not treated with any compound) is set as 100%.
# [7] = system: Becap37 (human breast cancer cell); experiment: as above; type: cell-based
# Description: as §4, §5
# [8] = system: CNE (nasopharyngeal carcinoma cell); experiment: as above; type: cell-based; settings: MTT
# Description: as §4, §5
# [9] = system: CaES-17 (esophageal cancer cell); experiment: as above; type: cell-based
# Description: as §4, §5
# [10] = system: Hela (human cervical cancer cell); experiment: as above; type: cell-based; settings: MTT
# Description: as §4, §5
# [11] = system: Hep-2 (laryngeal carcinoma); experiment: as above; type: cell-based
# Description: as §4, §5
# [12] = system: Huh7 (human liver cancer cell); experiment: as above; type: cell-based
# Description: as §4, §5
# MG63 (osteosarcoma) = experiment: as above; type: cell-based
# Description: as §4, §5
# [13] = system: MGC 803 (human gastric cancer cell); experiment: as above; type: cell-based
# Description: as §4, §5
# [14] = system: PANC-1 (pancreatic cancer); experiment: as above; type: cell-based
# Description: as §4, §5
# PC-3 (prostate cancer) = experiment: as above; type: cell-based; settings: MTT
# Description: as §4, §5
# [15] = system: RKO (human colon adenocarcinoma cell); experiment: as above; type: cell-based; settings: MTT
# Description: as §4, §5
# [16] = system: SK-OV-3 (ovarian cancer cell); experiment: as above; type: cell-based
# Description: as §4, §5
# [17] = system: U87 MG (malignant glioma cell); experiment: as above; type: cell-based
# Description: as §4, §5
smiles,measurement,setting,value
"COC(=O)C[C@@](CCCC(C)(C)OC(C)=O)(OC(C)=O)C(=O)O[C@@H]1C(OC)=C[C@]23CCCN2CCc2cc4c(cc2[C@H]13)OCO4 [BS-HH-001, 2,6-diacetylhomoharringtonine]",IC50,[1]; Homo sapiens,0.02 µg/mL
same,IC90,[1]; Homo sapiens,0.05 µg/mL
same,IC50,"[2]; Homo sapiens, Jurkat",0.012 µg/mL
same,IC90,"[2]; Homo sapiens, Jurkat",≥ 16 µg/mL
same,IC50,"[3]; Homo sapiens, K562/Adr",0.062 µg/mL
same,IC90,"[3]; Homo sapiens, K562/Adr",1.18 µg/mL
same,IC50,"[4]; Homo sapiens, Kasumi 1, MTT",0.006 µg/mL
same,IC90,"[4]; Homo sapiens, Kasumi 1, MTT",0.021 µg/mL
same,IC50,[5]; Homo sapiens,0.01 µg/mL
same,IC90,[5]; Homo sapiens,0.022 µg/mL
same,anti-RPMI8226 (multiple myeloma) effectiveness,[6],particularly effective
same,IC50,"[6]; Homo sapiens, RPMI-8226, MTT",0.009 µg/mL
same,IC90,"[6]; Homo sapiens, RPMI-8226, MTT",0.12 µg/mL
same,IC50,"A549 (human lung cancer); Homo sapiens, A549",0.03 µg/mL
same,IC90,"A549 (human lung cancer); Homo sapiens, A549",> 16 µg/mL
same,IC50,[7]; Homo sapiens,0.015 µg/mL
same,IC90,[7]; Homo sapiens,14 µg/mL
same,IC50,[8]; Homo sapiens,0.062 µg/mL
same,IC90,[8]; Homo sapiens,> 16 µg/mL
same,IC50,"[9]; Homo sapiens, CaEs17",0.062 µg/mL
same,IC90,"[9]; Homo sapiens, CaEs17",> 16 µg/mL
same,IC50,"[10]; Homo sapiens, HeLa",0.026 µg/mL
same,IC90,"[10]; Homo sapiens, HeLa",> 16 µg/mL
same,IC50,"[11]; Homo sapiens, HEp-2",0.026 µg/mL
same,IC90,"[11]; Homo sapiens, HEp-2",> 16 µg/mL
same,IC50,"[12]; Homo sapiens, Huh-7",0.016 µg/mL
same,IC90,"[12]; Homo sapiens, Huh-7",0.13 µg/mL
same,IC50,"MG63 (osteosarcoma); Homo sapiens, MG-63, MTT",0.02 µg/mL
same,IC90,"MG63 (osteosarcoma); Homo sapiens, MG-63, MTT",2.4 µg/mL
same,IC50,"[13]; Homo sapiens, MGC-803",0.03 µg/mL
same,IC90,"[13]; Homo sapiens, MGC-803",0.66 µg/mL
same,IC50,"[14]; Homo sapiens, PANC-1, MTT",0.036 µg/mL
same,IC90,"[14]; Homo sapiens, PANC-1, MTT",> 16 µg/mL
same,IC50,PC-3 (prostate cancer); Homo sapiens,0.029 µg/mL
same,IC90,PC-3 (prostate cancer); Homo sapiens,> 16 µg/mL
same,IC50,[15]; Homo sapiens,0.007 µg/mL
same,IC90,[15]; Homo sapiens,0.02 µg/mL
same,IC50,"[16]; Homo sapiens, SK-OV-3, MTT",0.12 µg/mL
same,IC90,"[16]; Homo sapiens, SK-OV-3, MTT",> 16 µg/mL
same,IC50,"[17]; Homo sapiens, U-87 MG",0.018 µg/mL
same,IC90,"[17]; Homo sapiens, U-87 MG",0.11 µg/mL
COC(=O)C[C@@](CCCC(C)(C)OC(=O)/C=C/c1ccco1)(OC(=O)/C=C/c1ccco1)C(=O)O[C@@H]1C(OC)=C[C@]23CCCN2CCc2cc4c(cc2[C@H]13)OCO4 [BS-HH-0022],IC50 H9,[1],0.19 µg/mL
same,IC90 H9,[1],0.4 µg/mL
same,IC50 Jurkat,[2],0.088 µg/mL
same,IC90 Jurkat,[2],10.13 µg/mL
same,IC50 K562/adr,[3],0.41 µg/mL
same,IC90 K562/adr,[3],1.84 µg/mL
same,IC50 Kasumi-1,[4]; MTT,0.063 µg/mL
same,IC90 Kasumi-1,[4]; MTT,0.22 µg/mL
same,IC50 NB4,[5],0.08 µg/mL
same,IC90 NB4,[5],0.25 µg/mL
same,IC50 RPMI8226,[6]; MTT,0.12 µg/mL
same,IC90 RPMI8226,[6]; MTT,0.63 µg/mL
same,IC50 A549,A549 (human lung cancer),0.23 µg/mL
same,IC90 A549,A549 (human lung cancer),>16 µg/mL
same,IC50 Becap37,[7],0.23 µg/mL
same,IC90 Becap37,[7],11.14 µg/mL
same,IC50 CNE,[8],0.21 µg/mL
same,IC90 CNE,[8],16 µg/mL
same,IC50 CaES-17,[9],0.61 µg/mL
same,IC90 CaES-17,[9],>16 µg/mL
same,IC50 Hela,[10],0.33 µg/mL
same,IC90 Hela,[10],9.38 µg/mL
same,IC50 Hep-2,[11],0.22 µg/mL
same,IC90 Hep-2,[11],>16 µg/mL
same,IC50 Huh7,[12],0.13 µg/mL
same,IC90 Huh7,[12],0.99 µg/mL
same,IC50 MG 63,MG63 (osteosarcoma); MTT,0.24 µg/mL
same,IC90 MG 63,MG63 (osteosarcoma); MTT,3.25 µg/mL
same,IC50 MGC 803,[13],0.16 µg/mL
same,IC90 MGC 803,[13],0.76 µg/mL
same,IC50 PANC-1,[14]; MTT,0.69 µg/mL
same,IC90 PANC-1,[14]; MTT,15.56 µg/mL
same,IC50 PC-3,PC-3 (prostate cancer),1.37 µg/mL
same,IC90 PC-3,PC-3 (prostate cancer),>16 µg/mL
same,IC50 RKO,[15],0.044 µg/mL
same,IC90 RKO,[15],0.35 µg/mL
same,IC50 SK-OV-3,[16]; MTT,1.33 µg/mL
same,IC90 SK-OV-3,[16]; MTT,>16 µg/mL
same,IC50 U87 MG,[17],0.16 µg/mL
same,IC90 U87 MG,[17],0.59 µg/mL
